Experimental data published in US9487551B2, “Small molecule compounds that control mammal-pathogenic nematodes” (California Institute of Technology, priority 2011, dated 2016).
“Also recorded” adds a separate entry of the source. Marks after values point to notes of the source that are not given here.

Legend:
[1] = tested on: C. elegans; details: in vivo; cited from earlier work
[2] = tested on: C. elegans; details: cited from earlier work
[3] = tested on: S. glaseri; assay: Ascaroside function (Table 12); type: in vivo; details: listed = has this function
Description: (§1) Various ascarosides and ascaroside blends were administered to various nematodes described below (Table 12). […] A very strong result of affecting nematode behavior is designated in the table as “strong.”

[4] = tested on: Panagrellus redivivus; assay: Ascaroside function (Table 12); type: in vivo; details: listed = has this function
Description: as §1

[5] = tested on: Several of the tested nematode species; assay: Retention assay; type: in vivo; details: 1 nM, 1 μM and 1 mM tested
Description: OP50 E. coli was grown on a standard 5 cm agar plate (made with standard Nematode Growth Medium). The bacterial lawn was 16 mm in diameter and was grown overnight at 20° C. before being used in trials. Two 4 mm spots (0.6 μL) were placed on opposite sides of the bacterial lawn (using a transparent template to guide spot placement), and several minutes elapsed for the liquid to settle in before placing nematodes down on the assay. Recording began immediately upon worm placement. 0.6 μL of the control was placed on one side of the lawn, and 0.6 μL of the experimental cue was placed on the other side of the lawn, changing the location of the cue throughout trials between left/right and top/bottom to avoid bias.
Nematodes were isolated by gender at the L4 stage the day before being used in trials as developed adults. Worms were evenly divided and placed at two points equidistant from the foci of the scoring region. Trials were recorded for 20 minutes, and frames were collected for analysis at 1 frame per second. Results were averaged from at least three different trials. For every nematode species in this study, a different total number of worms (using water in both scoring regions) was tested to determine the minimum number of worms necessary for consistent unbiased results over a 20 minute trial. The total number of worms used in the multiple species assays depended on that species' optimal parameters. 10 worms were used for P. redivivus males and females, 20 worms were used for C. elegans males and O. dolichuridae males, and 14 worms were used for S. glaseri males. The Automated Software was used to compare worm occupancy in each scoring region over time, and the Chemotaxis Index (Bargmann et al., Cell 74:515-27 (1993), which is hereby incorporated by reference in its entirety) was adapted to score preference or avoidance to each ascaroside.
A video camera attached to the microscope produced a digital video stream, which was then analyzed. The ratio of the time the average worm spent in each region of interest was calculated for every trial. For ease of implementation, all worms in a single experiment were assumed to be roughly the same size. Thus worm pixels were counted instead of whole worms, allowing fractions of a worm in the region of interest to be taken into account. It also eliminated the need for a shape-based worm identification algorithm, and allowed each frame to be analyzed independently. A band-pass filter was applied to each frame to eliminate the effect of uneven lighting and also accentuate the worms against the background. The worm was then identified after thresholding the filtered image. Throughout each experiment, the locations and sizes of the regions of interest were known. Through the filtering described above, it is known which pixels are occupied by worms and which ones are not. Thus, the ratio of worm-pixels to all pixels inside the region of interest can be calculated to produce the worm-occupancy ratio. This calculation was done for every frame, giving a plot output of worm-occupancy ratio vs. time for each region.

[6] = tested on: C. elegans males; assay: Attraction assay (long-range, point source); type: in vivo; details: 10 cm plate
Description: 10 cm standard chemotaxis plates were prepared (Bargmann et al., Cell 74:515-27 (1993), which is hereby incorporated by reference in its entirety) and stored at 4° C. until the day before use. Standard 1 cm-diameter copper pipes were sectioned into 1 cm-tall segments to use for the holding chambers. The females/hermaphrodites were isolated overnight, washed 3 times in M9 buffer, and then allowed to wander on a plate pre-conditioned with 50 uL of 1000× treptomycin for 2 hours to kill any bacteria that might produce a false positive attractant. The nematodes were then washed 3 times, and the supernatant from the last wash was placed in a copper chamber, as the control, 1 cm from the border of the 10 cm plate. The nematodes were suspended in M9 within the copper chamber, 1 cm from the border opposite the control chamber. After 6 hours, they were subsequently removed and replaced with 3 μL of 1M sodium azide. 100 C. elegans adult males were isolated overnight, washed several times in ddH2O, and placed at the center of the agar plate. After several hours, males paralyzed within 2 cm of each region were scored. The Chemotaxis Index (Bargmann et al., Cell 74:515-27 (1993), which is hereby incorporated by reference in its entirety) was then used to score male chemotaxis to either point source.

[7] = tested on: C. elegans; assay: Ascaroside function (Table 12); type: in vivo, Caenorhabditis elegans; parameters: key to Attract Females/Herm. / Promote Dauer Formation / Attract Males: A very strong result of affecting nematode behavior is designated in the table as “strong.”; details: listed = has this function
Description: as §1

[8] = tested on: S. feltiae; assay: Ascaroside function (Table 12); type: in vivo, Steinernema feltiae; details: listed = has this function
Description: as §1

[9] = tested on: Meloidogyne javanica, M. floridensis, M. incognita, M. hapla; assay: Ascaroside function (Table 12); type: in vivo, Meloidogyne spp.; details: for predicted function in Meloidogyne species: alone, in concert, and/or in concert with ascr#9 or other ascarosides; for Dispersal (of dauer larvae, infectious juveniles) / Repel Females/Herm.: entries with asterisk (predicted)
Description: (§2) Ascarosides ascr#10, ascr#16, ascr#18, ascr#20, and ascr#22 were detected in certain species of Meloidogyne plant parasitic nematodes (FIG. 83) and identified using high-resolution mass spectrometry (FIGS. 84-88).
as §1

[10] = tested on: Heterorhabditis bacteriophora, H. zealandica, H. floridensis; assay: Ascaroside function (Table 12); type: in vivo, Heterorhabditis spp.; details: for predicted function in Heterorhabditis: alone, in concert, and/or in concert with ascr#9 or other ascarosides; for Dispersal (of dauer larvae, infectious juveniles) / Repel Females/Herm.: entries with asterisk (predicted)
Description: as §2, §1

[11] = tested on: C. elegans; assay: Quadrant chemotaxis assay; type: in vivo; details: FIGS. 48A-B; wild-type hermaphrodites
Description: Chemotaxis to both non-indole and indole ascarosides was assessed on 10 cm four-quadrant petri plates (Wicks et al., Dev. Biol. 221:295-307 (2000), which is hereby incorporated by reference in its entirety). Each quadrant was separated from adjacent ones by plastic spacers (FIG. 1B). Pairs of opposite quadrants were filled with nematode growth medium (NGM) agar containing either indole ascarosides or non-indole ascarosides at different concentrations. Animals were washed gently in a S-basal buffer, placed in the center of a four-quadrant plate with ascarosides in alternating quadrants, and scored after 15 minutes and 30 minutes. A chemotaxis index was calculated as: (the number of animals on ascaroside quadrants minus the number of animals on buffer quadrants)/(total number of animals).
Chemotaxis to hbas#3 was assessed on 10 cm four-quadrant petri plates (Wicks et al., Dev. Biol. 221:295-307 (2000), which is hereby incorporated by reference in its entirety). Each quadrant was separated from adjacent ones by plastic spacers. Pairs of opposite quadrants were filled with nematode growth medium (NGM) agar containing different concentrations of hbas#3. Animals were washed gently in an S-basal buffer and placed in the center of a four-quadrant plate with ascarosides in alternating quadrants, and scored after 15 minutes and 30 minutes. A chemotaxis index was calculated as: (the number of animals on ascaroside quadrants minus the number of animals on buffer quadrants)/(total number of animals).

[12] = tested on: C. elegans; assay: Spot attraction assay; type: in vivo
Description: The spot attraction assays were conducted according to a previously reported method (Pungaliya et al., PNAS 106:7708-13 (2009); Srinivasan et al., Nature 454:1115-18 (2008), which are hereby incorporated by reference in their entirety). For both C. elegans hermaphrodites and males, 50-60 worms were harvested daily at the fourth larval stage (L4) and stored segregatedly by sex at 20° C. overnight, to be used as young adults the following day. For the competition experiments, two conditions were used: 120 nM ascr#3 and 10 nM icas#3 (Condition 1), or 12 μM ascr#3 and 1 μM icas#3 (Condition 2) in water containing 10% ethanol. Aliquots were stored at −20° C. in 20 μL tubes. 10% ethanol in water was used as control.
Attraction assays with hbas#3 were conducted as previously reported (Srinivasan et al., Nature 454:1115-18 (2008); Pungaliya et al., Proc. Natl. Acad. Sci. U.S.A. 106:7708-13 (2009), which are hereby incorporated by reference in their entirety). For the attraction assays, 50-60 hermaphrodite worms were harvested daily at the early fourth larval stage (L4) and stored at 20° C. overnight to be used as young adults the following day. Hbas#3 was dissolved in water containing 10% ethanol. Aliquots were stored at −20° C. in 20 μL tubes. 10% ethanol in water was used as control.

For `CC1O[C@@H](O[C@H](C)CCCC/C=C/C(=O)O)[C@@H](O)C[C@H]1O` (some centres unmarked) [ascr#3], the dauer-inducing activity [1] is listed as “individually promote dauer entry”, the “most active amount for attraction” value ([2]; from 1 μM concentration) is listed as ~1 pmol and the “response of social and solitary hermaphrodites” value ([2]; high dauer-inducing concentrations) is listed as “strongly deter both social and solitary hermaphrodites”. The “response of males and hermaphrodites” value ([2]; in vivo) was “strongly attracts males but repels hermaphrodites”, the “Attract Males” value [3] was “ascr#3” and the “Attract Males” value [4] was “ascr#3”. For the same compound, the “preference for ascaroside-conditioned areas” value [5] was “preferred areas conditioned”, the “amount as low as which elicited C. elegans male attraction” value [6] was 5 femtomol and the “male attraction from a distance” value [6] was “chemotax towards”. For the same compound, the “Attract Males” value [7] was “ascr#3”, the “Promote Dauer Formation” value [7] was “ascr#3 ([strong])” and the “Repel Females/Herm.” value [7] was “ascr#3”. The “Dispersal (of dauer larvae, infectious juveniles)” value (“Dispersal” for short) [8] was “ascr#3”.

With `CC(=O)CC[C@@H](C)O[C@@H]1O[C@@H](C)[C@H](O)C[C@H]1O[C@@H]1O[C@H](CO)[C@@H](O)[C@H](O)[C@H]1O` [ascr#4] the “Promote Dauer Formation” value [7] was “ascr#4”.

With `C[C@H](CC/C=C/C(=O)O)O[C@@H]1O[C@@H](C)[C@H](O)C[C@H]1O` [ascr#7] the “Attract Males” value [3] was “ascr#7”, the “Attract Males” value [4] was “ascr#7” and the “preference for ascaroside-conditioned areas” value [5] was “preferred areas conditioned”. For the same compound, the “Attract Males” value [7] was “ascr#7”.

With `CC1OC(O[C@H](C)CCCCCCCC(=O)O)C(O)CC1O` (some centres unmarked) [ascr#16] the “predicted function in Meloidogyne species” value [9] was “act as dispersants and repellants”, the “Dispersal” value [9] was “ascr#16*” and the “Repel Females/Herm.” value [9] was “ascr#16*”.

For `CC1OC(O[C@H](C)CCCCCCCCC(=O)O)C(O)CC1O` (some centres unmarked) [ascr#18], the “predicted function in Heterorhabditis” value [10] was “act as dispersants and repellants”, the “Dispersal” value [10] was “ascr#18*” and the “Repel Females/Herm.” value [10] was “ascr#18*”. The “predicted function in Meloidogyne species” value [9] was “act as dispersants and repellants”, the “Dispersal” value [9] was “ascr#18*” and the “Repel Females/Herm.” value [9] was “ascr#18*”.

With `CC1OC(O[C@H](C)CCCCCCCCCC(=O)O)C(O)CC1O` (some centres unmarked) [ascr#20] the “predicted function in Meloidogyne species” value [9] was “act as dispersants and repellants”, the “Dispersal” value [9] was “ascr#20*” and the “Repel Females/Herm.” value [9] was “ascr#20*”.

With `C[C@H](CCCCCCCCCCC(=O)O)O[C@@H]1O[C@@H](C)[C@H](O)C[C@H]1O` [ascr#22] the “predicted function in Heterorhabditis” value [10] was “act as dispersants and repellants”, the “Dispersal” value [10] was “ascr#22*” and the “Repel Females/Herm.” value [10] was “ascr#22*”. For the same compound, the “predicted function in Meloidogyne species” value [9] was “act as dispersants and repellants”, the “Dispersal” value [9] was “ascr#22*” and the “Repel Females/Herm.” value [9] was “ascr#22*”.

With `C[C@H](CCCC/C=C/C(=O)O)O[C@@H]1O[C@@H](C)[C@H](OC(=O)c2ccc(O)cc2)C[C@H]1O` [hbas#3, (8R)-(3′R-Hydroxy-5′R-(4-hydroxybenzoyloxy)-6′S-methyl-(2H)-tetrahydropyran-2′-yloxy)non-(2E)-enoic acid] the “concentration as low as which strongly attracted C. elegans” value [11] was 10 femtomolar, the “attraction of wild-type (N2) hermaphrodites” value ([12]; dose dependent) was “attracted” and the “Attract Males” value [7] was “([strong])”.

With `C[C@H](CCCCC(=O)O)O[C@@H]1O[C@@H](C)[C@H](OC(=O)c2c[nH]c3ccccc23)C[C@H]1O` [icas#1] the “attraction in spot attraction assay” value ([12]; 1 pmol (high concentrations), N2 hermaphrodites and him-5 males) was “attractive to both C. elegans sexes; also recorded: attracted both males and hermaphrodites”, the “Attract Females/Herm.” value [7] was “icas#1 ([strong])” and the “Attract Males” value [7] was “icas#1 ([strong])”.

In the case of `C[C@@H]1O[C@@H](OCCCCC(=O)O)[C@H](O)C[C@H]1O` [oscr#9, 5-(3′R,5′R-Dihydroxy-6′S-methyl-(2H)-tetrahydropyran-2′-yloxy)pentanoic acid], the “Attract Males” value [4] is reported as “oscr#9”.

In the case of `CC1O[C@@H](OCCCCCCCCC(=O)O)C(O)C[C@H]1O` (stereo partly drawn) [oscr#10, 9-(3′R,5′R-Dihydroxy-6′S-methyl-(2H)-tetrahydropyran-2′-yloxy)nonanoic acid], the “Repel Males” value [4] is reported as “oscr#10”.
